This is an account of results in patent US12584919B2, “Enhancing anti-tumor response in melanoma cells with defective sting signaling” (H. Lee Moffitt Cancer Center and Research Institute, Inc., priority 2018, dated 2026).

Entries after “also recorded” stand apart in the source; their conditions may differ. Some results are limits rather than exact numbers.

Series [1] relates to human melanoma cell lines. Briefly: CXCL10 and IFN-β release (ELISA) after STING agonist stimulation. It counts as cell-based. In general terms: An ELISA detects its analyte on a solid surface through an enzyme-linked reagent.
Series [2] deals with human melanoma cell lines. Description: IRF3 phosphorylation by immunoblot after STING agonist stimulation. The class given is cell-based. The source says: Proteins were extracted with RIPA buffer (ThermoFisher Scientific) containing protease inhibitors (Thermo Scientific). Protein extracts from NK92, a natural killer cell line, was used as a positive control for the expression of STING and cGAS (Souza-Fonseca-Guimaraes F, et al. J Biol Chem. 2013 288:10715-21). Equal amounts of proteins were resolved on SDS-PAGE gels (Bio-Rad) and transferred to polyvinylidene fluoride (PVDF) membranes (Bio-Rad). After blocking with 5% non-fat dry milk, membranes were incubated with antibodies specific for STING, cGAS, p-IRF3, IRF3 (all from Cell Signaling) and β-actin (Sigma Aldrich). Following incubation with appropriate secondary antibodies, bands were visualized using an enhanced chemiluminescence detection system.
For orientation: Immunoblotting shows a protein as a band on a membrane.

For series [3], the system named is human melanoma cell lines (WM39, WM3629, 526-MEL) co-cultured with HLA-matched TIL. Description: Co-culture assay of melanoma cells with HLA-matched TIL, cytokine release by ELISA.
Method: TIL production of IFN-γ and ^51Cr release was assessed for cytotoxicity.
After 24 hours of incubation at 37° C. in a humidified CO2 incubator, the supernatant was harvested for detection of IFN-γ release using enzyme-linked immunosorbent assay (Human IFN-γ Quantikine ELISA Kit, R&D Systems). For the MHC class I blocking assay, melanoma cells were incubated with W6/32 (anti-HLA-A,B,C monoclonal antibody, Biolegend) at a final concentration of 50 μg/mL for 1 hour at 37° C. prior to the addition of TIL.
In series [4] the test system is human melanoma cell lines (WM39, WM3629, 526-MEL) as targets, TIL 195 as effector cells. Description: 51Cr release cytotoxicity assay, lysis of melanoma targets by TIL.
Method: After 4 hours, supernatant was harvested and measured in Trilux (PerkinElmer). Each point represented the average of quadruplicate wells and percentage of specific lysis was calculated by: (experimental release—minimum release)/(maximum release-minimum release)×100.
For series [5], the system named is human melanoma cell lines. Description: Flow cytometry of MHC class I (HLA-A.B.C) surface expression. It counts as cell-based. As for the experimental part:
DAPI (Sigma-Aldrich) was used as a viability dye. Sample acquisition was performed on an LSR II flow cytometer (BD Biosciences), and the data were analyzed using FlowJo software (Tree Star).

Series [6] concerns melanoma cell lines lacking STING. Description: STING/cGAS expression by immunoblot after demethylating agent treatment.
Series [7] has the same test system. Description: CXCL-10 induction in 5AZADC-treated melanoma cells after STING agonist stimulation. Particulars: 5AZADC-treated cell lines lacking STING, then stimulated with the STING agonist 2′3′-cGAMP.
[8] abbreviates: WM9 and WM39 cell lines, 2′3′-cGAMP stimulation.

Turning to `Nc1nc2c(ncn2[C@@H]2O[C@@H]3COP(=O)(O)O[C@H]4[C@@H](O)[C@H](n5cnc6c(N)ncnc65)O[C@@H]4COP(=O)(O)O[C@@H]2[C@@H]3O)c(=O)[nH]1` [2′3′-cGAMP, 2′3′-cyclic-GMP-AMP], the “response to 2′3′-cGAMP stimulation (p-IRF3, CXCL10, IFN-β)” value in series [1] (526-MEL (HLA-A2) cell line) is recorded as “did not respond”. For the same compound, the “CXCL10 induction in cell culture supernatants” value in series [1] (setting [8]) is reported as “detectable levels”. Also, the “IFN-β induction in cell culture supernatants” value in series [1] (setting [8]) is reported as “detectable levels”. Further, the “phosphorylation of IRF3” value in series [2] (5 STING-positive cell lines (WM164, WM9, WM39, A375, WM1366), 2′3′-cGAMP 10 μg/ml with Lipofectamine, 4 h) is on record as 4 of 5 STING-positive cell lines; in series [2] (WM2032 (STING-negative) cell line, 2′3′-cGAMP stimulated), “not detected”. For the same compound, the IFN-γ secretion entry in series [3] (526-MEL / TIL 19 co-culture) was “did not induce any increased IFN-γ secretion”. Moreover, the IFN-γ release result in series [3] (526-MEL / TIL 195 co-cultures) is reported as “no increase in IFN-γ release”; in series [3] (WM3629 / TIL 195 co-cultures, p<0.01), “increased”. The “increase in IFN-γ secretion” value in series [3] (Example 2, STING-positive cell lines responding strongly, cultured with HLA-matched TILs, p<0.01) is listed as at most 15 fold. Further, the “IFN-γ secretion by TIL” value was “significantly increased” in series [3] (MART-1 pulsed WM39 / TIL 195 co-culture, p<0.001) and “significantly enhanced” in series [3] (WM39 / TIL 195 co-culture, with vs without 2′3′-cGAMP). The “IFN-γ production by TIL” value in series [3] (MART-1 pulsed WM39 with two additional HLA-A2 TIL, p<0.01 vs untreated co-cultures) is recorded as “higher levels of IFN-γ production”. In series [3] (WM39 / TIL 19 co-cultures, p<0.001), the “IFN-γ release, higher than the untreated group” value is reported as 24 fold. The “higher IFN-γ release” value in series [3] (WM39 / TIL 195 and sh-control / TIL 195 co-cultures, P<0.05) is “more than 25 fold”. The “IFN-β in co-culture supernatants” value in series [3] (WM39 / TIL 195 co-culture groups with 2′3′-cGAMP) was “Induction of IFN-β”. Also, the IFN-β induction result in series [3] (control group containing TIL with 2′3′-cGAMP, no tumor cells) was “not observed”. Further, the IFN-γ induction entry in series [3] (sh-STING (STING knockdown WM39) / TIL 195 co-cultures) is recorded as “no increase in IFN-γ induction”. The “lysis by TIL 195 (lytic units)” value in series [4] (526-MEL cells) is listed as “did not induce any increase in lysis”; in series [4] (WM3629 cells), “greater lysis”. For the same compound, the “specific lysis by TIL 195” value in series [4] (526-MEL targets, defective in STING signaling) is given as “did not alter their specific lysis”. Besides, the “augmentation of TIL cytotoxicity” value in series [4] (Example 2, STING-responsive cell lines with HLA-matched TILs, p<0.05) was above 2 fold. Moreover, the “increase in lytic potential of TIL 195 (lytic units)” value in series [4] (WM39 and MART-1-pulsed WM39 cells vs their controls) is listed as above 10 fold. The “increase in lysis by TIL 195” value in series [4] (WM39 and MART-1 pulsed WM39 targets, p<0.05) is above 2 fold. For the same compound, the “cytolytic activity of TIL 195” value in series [4] (WM39 and sh-control targets) was “increased cytolytic activity”; in series [4] (sh-STING (STING knockdown WM39) targets) it was “complete blockade of this response”. Moreover, the “cytotoxicity of the STING agonist alone” value in series [4] (WM39 target cells with or without 2′3′-cGAMP in the absence of TIL) is “did not result in any major cytotoxicity”. For the same compound, the “cytotoxicity (lysis by TIL 195)” value in series [4] (WM3629 targets, p<0.05 vs controls) is “Increased”. Also, in series [5] (1205Lu, WM266-4, WM2032 and 526-MEL cell lines with impaired STING signaling), the “expression of MHC class I” value is given as “no significant changes”. In addition, the MHC-I/HLA-A.B.C expression result in series [5] (Example 1, human melanoma cell lines (FIG. 14)) is listed as “upregulation of MHC I”. Besides, in series [5] (WM39 and sh-control cells, p<0.01), the “higher surface expression of MHC class I” value is on record as “more than 2.5 fold”. Also, the “surface expression of MHC class I” value in series [5] (sh-STING (STING knockdown WM39) cells) is “did not cause any increase in MHC class I”.

Consider `Nc1ncn([C@H]2C[C@H](O)[C@@H](CO)O2)c(=O)n1` [5AZADC, 5-aza-2′-deoxycytidine], for which the STING expression result in series [6] (5AZADC-treated melanoma cell lines lacking STING) is listed as “Partial induction of STING expression; also recorded: reconstitution of STING expression”. In addition, the “STING and cGAS expression” value in series [6] (A375, G361, MeWO, SK-MEL-5 and other human melanoma cell lines with and without 5AZADC (FIG. 7)) is “partially recapitulated”. In addition, the CXCL-10 induction entry in series [7] is “induction of CXCL-10; also recorded: production of CXCL-10; also recorded: STING-dependent CXCL-10 induction”.
